Consider one molecule from PMC12880750, “Mechanistic insights and in vivo HIV suppression by the BRD4-targeting small molecule ZL0580” (PLOS Pathogens, 2026).

For series [1], the system named is Tat recruitment to the HIV promoter in J-Lat cells (clone 10.6). On the set-up: method as in PMID 31329163. To be noted: cited from earlier work.
The test system of series [2] is BRD4-knockout (KO) J-Lat cells. Put plainly: RT-qPCR of differentially expressed genes, BRD4-KO J-Lat cells. It counts as cell-based, human. To be noted: same treatments. The procedure: To validate the RNA-Seq results, RT-qPCR analysis was performed on a subset of differentially expressed genes (DEGs) (Fig 3E). Eight representative DEGs were selected based on statistical significance (adjusted p values) and their involvement in key pathways identified by GSEA, including lipid metabolism/cholesterol biosynthesis (HMGCS1, SQLE, DHCR7) and cytokine signaling (ITK and DUSP8). Relative gene expression levels were normalized to the housekeeping gene GAPDH. […] As an additional control, RT-qPCR was also performed on RNA isolated from BRD4-knockout (KO) J-Lat cells that received the same treatments. The generation and characterization of BRD4-KO J-Lat cells were described previously.
RT-qPCR was performed as previously reported.

The next series has as its target T1, BRD4 BD1 WT (Homo sapiens, UniProt O60885).
T1 construct: Constructs used for mutagenesis, including wild-type BD1 (BD1 WT), BD1 with an E151A mutation (BD1 E151A), and wild-type BD2 (BD2 WT); GST (cleaved yes); made in house
The experiment in a line: Thermal shift assay (TSA/DSF), BD1 WT. It counts as binding. To be noted: eight increasing concentrations. The procedure:
The melting temperatures shifts (ΔTm) were measured and the ΔTm curves as a function of compound-to-protein ratios were generated (Fig 2B–2C). […] As an additional control, the Tm of WT BD1 and E151A mutant in the absence of compound was also measured by TSA.
Plasmid construction and subsequent protein expression and purification of BRD4 proteins were performed using OverExpress C43(DE3) bacterial competent cells (Lucigen) as described in our previous studies. In brief, 12 L of bacterial cultures grown to OD600 between 0.6-0.8 were induced at 37°C for 4 h by 1 mM isopropyl […] (IPTG). Bacterial sonication supernatant in the lysis buffer (500 mM NaCl, 20 mM Tris-HCl pH 7.9 at 4°C, 20% glycerol, 1 mM EDTA, 0.2 mM DTT, and protease inhibitors) was incubated with glutathione (GSH) agarose beads (GOLDBIO, G-250–100) overnight with rotation at 4°C. The protein-bound GSH beads were washed three times with the lysis buffer and digested with human rhinovirus 3C protease (HRV-P3C; Thermal Fisher 88946) at 4°C for 4 h, according to the manufacture’s procedure, to remove GST tag from BD1/2 proteins. Untagged BRD4-BD1 and -BD2 were separated from HRV-P3C via passing through a HiTrap Q HP anion exchange chromatography column (GE Healthcare, GE17-1154-01) and eluted by a salt gradient from 100 mM to 1 M NaCl. […]

Another series deals with BRD4 BD2. The arrangement: method as in PMID 31329163. To be noted: in vitro binding affinity; cited from earlier work.
Series [3] in a line: Body weight / tolerability in HIV-infected Hu-mice. It counts as in vivo, CD34+ Hu-NSG mice (Hu-mice). The source says:
To assess general health of the mice and potential protective effects of the treatments, body weights of Hu-mice were closely monitored. […] There was a slight reduction in body weights of Hu-mice in the EV group following HIV infection. However, no statistically significant difference was detected as compared to the three treatment groups (Fig 6E).
Mice were 16-week-old at the initiation of the experiments. All mice received human CD34 + stem cells of a single donor and human immune cell reconstitution was confirmed for all mice. A total of 12 Hu-mice were initially included in the study with each tagged and assigned with a unique ID. At week 0, all Hu-mice were intravenously (IV) infected with HIV-1 JR-CSF at a single dose of 10ng HIV p24 equivalent virus per animal. Blood/plasma viral loads were monitored and quantified weekly by a single-step RT-qPCR until systemic HIV infection was established. […] At week 3, the remaining 11 Hu-mice were randomized into four groups for subsequent treatments: Empty Vehicle (EV) (n = 2), ART (n = 3), ZL0580 (n = 3), and ART + ZL0580 (n = 3). […] Plasma samples were collected from mice either weekly or biweekly for quantification of viral loads (RNA copies). Blood cells were also collected at weeks 7 and 13 for quantification of cell-associated HIV DNA in blood. Mouse weights were monitored after treatment.

Regarding `O=C(Nc1ccc(C(F)(F)F)cc1)Nc1ccc(S(=O)(=O)N2CCC[C@H]2C(=O)Nc2ccccc2)cc1` [ZL0580], the “Tat binding to the HIV promoter” value in series [1] is reported as “decreased”. Moreover, the “Contrasting regulatory effects on representative DEGs in the absence of BRD4” value in series [2] is recorded as “largely abolished”. On BRD4 BD1 WT, the “Effect on stability of WT BD1 (TSA)” value is on record as “dose-dependently increased the stability”. The IC50 in the series on BRD4 BD2 was 1070 nM. Besides, in series [3] (daily intraperitoneal administration over the course of treatment), the “Tolerability in Hu-mice” value was “well tolerated”. For the same molecule, the “Body weights of Hu-mice” value in series [3] (daily intraperitoneal administration, throughout the study) is reported as “maintained stable body weights”.
